Substitutions are numbered along the chain they refer to. Read-outs that look alike come from different tables or passages of the source.
How the values were obtained:
Experiment in all cases: calcium imaging (Calcium-4), HEK […]
Format in all cases: cell-based
human TAS2R16 [1] = molecular target: T1, human TAS2R16 (Homo sapiens, UniProt Q9NYV7)
T1 construct: full-length; N-terminal 45 residues of rat SSTR3 and C-terminal 8 residues of bovine rhodopsin as tags; pEAK10, HEK 293T with G16gust44
T1 sequence (Q9NYV7 1-291): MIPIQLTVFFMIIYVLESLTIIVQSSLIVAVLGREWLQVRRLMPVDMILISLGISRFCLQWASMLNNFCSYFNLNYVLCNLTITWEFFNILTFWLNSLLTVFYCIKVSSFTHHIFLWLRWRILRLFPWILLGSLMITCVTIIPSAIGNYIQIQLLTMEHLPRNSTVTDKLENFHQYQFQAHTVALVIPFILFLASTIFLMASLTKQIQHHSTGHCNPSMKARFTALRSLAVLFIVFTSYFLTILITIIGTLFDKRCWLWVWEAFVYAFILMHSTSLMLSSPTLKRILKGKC

human TAS2R16 [2] = molecular target: T2, human TAS2R16 (Homo sapiens, UniProt Q9NYV7, V260F)
T2 construct: full-length; N-terminal 45 residues of rat SSTR3 and C-terminal 8 residues of bovine rhodopsin as tags; pEAK10, HEK 293T with G16gust44
T2 sequence (Q9NYV7 1-291 V260F): T1 sequence (Q9NYV7 1-291) with V260F

human TAS2R16 [3] = molecular target: T1, human TAS2R16; settings: G16gust44 co-expressed; agonist
human TAS2R16 [4] = molecular target: T3, human TAS2R16 (Homo sapiens, UniProt Q9NYV7, I247M)
T3 construct: full-length; N-terminal 45 residues of rat SSTR3 and C-terminal 8 residues of bovine rhodopsin as tags; pEAK10, HEK 293T with G16gust44
T3 sequence (Q9NYV7 1-291 I247M): T1 sequence (Q9NYV7 1-291) with I247M

human TAS2R16 [5] = molecular target: T4, human TAS2R16 (Homo sapiens, UniProt Q9NYV7, L125W)
T4 construct: full-length; N-terminal 45 residues of rat SSTR3 and C-terminal 8 residues of bovine rhodopsin as tags; pEAK10, HEK 293T with G16gust44
T4 sequence (Q9NYV7 1-291 L125W): T1 sequence (Q9NYV7 1-291) with L125W

human TAS2R16 [6] = molecular target: T5, human TAS2R16 (Homo sapiens, UniProt Q9NYV7, S133C)
T5 construct: full-length; N-terminal 45 residues of rat SSTR3 and C-terminal 8 residues of bovine rhodopsin as tags; pEAK10, HEK 293T with G16gust44
T5 sequence (Q9NYV7 1-291 S133C): T1 sequence (Q9NYV7 1-291) with S133C

human TAS2R16 [7] = molecular target: T6, human TAS2R16 (Homo sapiens, UniProt Q9NYV7, E86T/I247M/V260F)
T6 construct: full-length; N-terminal 45 residues of rat SSTR3 and C-terminal 8 residues of bovine rhodopsin as tags; pEAK10, HEK 293T with G16gust44
T6 sequence (Q9NYV7 1-291 E86T/I247M/V260F): T1 sequence (Q9NYV7 1-291) with E86T, I247M, V260F

human TAS2R16 [8] = molecular target: T7, human TAS2R16 (Homo sapiens, UniProt Q9NYV7, E86T/I247M)
T7 construct: full-length; N-terminal 45 residues of rat SSTR3 and C-terminal 8 residues of bovine rhodopsin as tags; pEAK10, HEK 293T with G16gust44
T7 sequence (Q9NYV7 1-291 E86T/I247M): T1 sequence (Q9NYV7 1-291) with E86T, I247M

human TAS2R16 [9] = molecular target: T8, human TAS2R16 (Homo sapiens, UniProt Q9NYV7, E86T/V260F)
T8 construct: full-length; N-terminal 45 residues of rat SSTR3 and C-terminal 8 residues of bovine rhodopsin as tags; pEAK10, HEK 293T with G16gust44
T8 sequence (Q9NYV7 1-291 E86T/V260F): T1 sequence (Q9NYV7 1-291) with E86T, V260F

EC50 (human TAS2R16 [2]) [µM] | EC50 (human TAS2R16 [4]) [µM] | EC50 (human TAS2R16 [5]) [µM] | EC50 (human TAS2R16 [6]) [µM] | EC50 (human TAS2R16 [7]) [µM] | EC50 (human TAS2R16 [8]) [µM] | EC50 (human TAS2R16 [9]) [µM] | SMILES | EC50 (human TAS2R16 [1]) [µM] | EC50 (human TAS2R16 [3])
 |  |  |  |  |  |  | N#C[C@H](O[C@@H]1O[C@H](CO[C@@H]2O[C@H](CO)[C@@H](O)[C@H](O)[C@H]2O)[C@@H](O)[C@H](O)[C@H]1O)c1ccccc1 [amygdalin] | 760 ± 400 | 
1280 ± 180 | 1400 ± 90 | 200 ± 50 | 74 ± 6 | 5090 ± 1100 | 3540 ± 550 | 3650 ± 1000 | OCc1ccccc1O[C@@H]1O[C@H](CO)[C@@H](O)[C@H](O)[C@H]1O [salicin] |  | plotted with wild-type human and macaque TAS2R16s
